# Data published in patent US8563520B2, “Treatment of ocular disease with inhibitors of alpha2 macroglobulin protein” (McGill University, priority 2005, dated 2013).
# “Also recorded” adds a separate entry of the source. Like-named read-outs stand apart in the source and are kept apart here.
# How the values were obtained:
# rat eyes = conditions: for IOP of normal eyes: daily topical betaxolol 0.5% eye drops; for IOP of cauterized (high IOP) eyes: daily topical betaxolol 0.5% eye drops from day 3 post-cauterization
# Experimental: Episcleral cauterization of rat eyes was performed under anesthesia. After a conjunctival incision, extra-ocular muscles were isolated and the major limbal draining veins were identified based on location, relative immobility, larger caliber and branching pattern. Cauterization of three episcleral vessels in the right eye was done with a 30″ cautery tip. The left eye in each animal was used as normal IOP control after sham-surgery (conjunctival incisions with no cauterization).
# IOP was gauged using a Tonopen XL tonometer under light anesthesia (intramuscular injection of ketamine, […]; xylazine, 0.32 mg/kg; and acepromazine, 0.4 mg/kg).
# A selective β-blocker (betaxolol 0.5%, Alcon) was applied daily as eye drops.
# [1] = tested on: retinal ganglion cells (RGCs); assay: RGC loss in high IOP (cauterization) glaucoma model, retrograde RGC labeling and counting; format: in vivo, rat; conditions: for RGC loss (% at day 42 vs normal): 14 days high, 28 normal IOP
# Experimental: Episcleral cauterization of rat eyes was performed under anesthesia.
# RGCs were labeled with 3% DII (1,1-dioctadecyl-3,3,3,3-tetramethylindocarbocyanine perchlorate) or with 3% fluorogold. Briefly, Wistar rats were anesthetized and their heads were mounted in a stereotactic apparatus.
# 7 days after dye injection, the vasculature of the rats were perfused-fixed (transcardiac perfusion in phosphate-buffer (PB), followed by 4% PFA in PB) and the eyes were enucleated. After post-fixing for 1 hour cuts were made through the sclera to form a Maltese cross pattern and retinas detached from the eyecup at the optic nerve head. The retinas were flat-mounted on glass slides (vitreous side up) air-dried and cover-slipped with mounting medium (Molecular Probes). The retinas were observed under fluorescence microscopy (Zeiss). […] RGCs were recognized in flat mounted retinas by the presence of retrogradely transported dye and by morphology. RGCs in all 4 quadrants (16 images per retina) were averaged and presented as […] of area counted.
# A puncture was made on the eye wall with a 30 G needle to allow the entrance of a cannula in the […]. A glass cannula (10 μm thickness), prepared with an upright microelectrode puller (Narishige) was connected through plastic tubing to a Hamilton syringe to dispense solutions of anti-α2 macroglobulin rabbit antibody (Calbiochem), control PBS, or control rabbit antibody (Sigma). Injections were done at day 14 and 21 post-surgery (in sham-operated control eyes with normal IOP, and cauterized eyes with high IOP). The intraocular injections were in 2 μl volumes containing a total of 2 μg antibody. This amount was selected because in quantitative western blots of whole rat retina there was an estimated total of ˜1 μg of α2 macroglobulin in glaucomatous eyes (data not shown). Ocular pressure was not affected by intraocular injections, the high IOP eyes remained high IOP and the normal IOP eyes remained normal IOP (data not shown).
# A second paradigm was used to confirm the role of α2 macroglobulin in RGC death. Neutralizing antibodies to α2 macroglobulin were injected intraocularly in glaucomatous eyes with high IOP to determine whether RGC death could be prevented. The experimental model was to induce high IOP for 14 days to trigger α2 macroglobulin over-expression and RGC damage, before the initiation of α2 macroglobulin neutralizing therapy. Neutralization was used as single therapy, or was combined with daily betaxolol treatment to better reflect the clinical setting in which glaucoma patients would be simultaneously treated with pressure-lowering drugs. Neutralizing antibodies were given at days 14 and 21 after cauterization, and surviving RGCs, identified by retrograde labeling, were counted at day 42 post-surgery. […]
# retinal mRNA = conditions: day 28
# Experimental: RNA preparation. Total RNA was isolated from retinal tissue using TRIZOL® (Life Technologies). Three retinas belonging to the same experimental group were pooled for the gene microarray experiment. RNA was then further purified using the RNAEASY® (QIAGEN®). The integrity of the RNA samples was assessed by running aliquots on RNA 6000 Nano LabChip (Agilent) using the 2100 bioanalyzer (Agilent).
# Probe synthesis, hybridization and scanning were done according to Affymetrix protocol, as a service at the McGill University and Genome Quebec Innovation Centre. For the experiments shown, Rat U34 Genome Arrays (8,700 genes, Affymetrix) were used. Briefly, RNA samples were first converted to double stranded cDNA (T7-(dT)24 primer (Genset)). Then the cDNAs were purified and used to generate the biotinylated cRNA probes (Bioarray High Yield RNA transcript labeling kit (Enzo diagnostics)). An aliquot of the purified cRNA was analyzed on RNA 6000 Nano LabChip (Agilent) to verify the integrity and size distribution. Immediately after hybridization the chip was placed in the Affymetrix GeneChip Fluidics Station 400 (Affymetrix). In total, 10 low-stringency washes (63 SSPE, 0.01% Tween-20, 0.005% Antifoam) and 4 high-stringency washes (100 mM MES, 0.1 M NaCl, 0.01% Tween-20, 50 C) were performed (all reagents from Sigma). The array was then incubated with SAPE® (streptavidin/phycoerythrin stain, Molecular Probes), followed by 10 low stringency washes. The array was incubated with biotinylated anti-streptavidin antibody (Vector Laboratories) and washed again with 15 low stringency washes. Specifically bound probe was detected by placing the array in the Agilent GeneArray scanner 2500 (Affymetrix). The scanned images were analyzed using the Microarray Analysis Suite version 5.0 (Affymetrix). Statistical analyses were done with the help of the Kensington Discovery Edition version 1.8 (Inforsense).
# Retinas were carefully dissected out to insure that only retinal mRNAs were prepared for gene microarray studies. Samples were obtained from sham operated eyes (normal IOP control, Group 1), eyes at 28 days high IOP (test, Group 2), and eyes 28 days after cauterization plus daily betaxolol treatment from day 3 onwards (Group 3). […] Samples from each of these groups (n=4 each group) were studied by gene microarrays (see FIG. 2 flowchart). A cutoff of 2.5-fold was used to afford significance (p<0.05).
# α2 macroglobulin mRNA = conditions: betaxolol treatment; still significantly increased over normal IOP
# Source text: Retinas were dissected from eyes treated as indicated (n=3) and mRNAs were purified and studied by Northern blotting with labeled α2 macroclobulin or actin (control) probes.
smiles,measurement,setting,value
CC(C)NCC(O)COc1ccc(CCOCC2CC2)cc1 (stereo not drawn) [betaxolol],IOP of normal eyes,rat eyes,no significant effect on normal IOP
same,IOP of cauterized (high IOP) eyes,rat eyes,full normalization of IOP after 3 days
same,IOP of cauterized (high IOP) eyes,rat eyes; listed as Betaxolol,fully normalized high IOP from day 7 onward
same,IOP of normal eyes,rat eyes; listed as Betaxolol,no significant effect
same,RGC loss (% at day 42 vs normal),"[1]; daily betaxolol days 14-42, no Ab injection",19±1%
same,RGC loss (% at day 42 vs normal),"[1]; daily betaxolol days 14-42, no Ab injection, listed as Betaxolol",19 ± 1%
same,RGC loss (% at day 42 vs normal),[1]; daily betaxolol days 14-42 plus control serum days 14 and 21,21 ± 5%
same,rate of RGC loss,"[1]; daily betaxolol, IOP normalized from day 7 onwards","reduces the rate of RGC loss, but does not prevent it; also recorded: reduced the average rate of RGC loss, but did not prevent it"
same,"Relative Change versus non-cauterized eyes, cauterized + betaxolol B",retinal mRNA; gene ATPase alpha-1 subunit (M74494),1.5
same,"Relative Change versus non-cauterized eyes, cauterized + betaxolol B",retinal mRNA; gene Amphiphysin 1 (Y13381),−1.1
same,"Relative Change versus non-cauterized eyes, cauterized + betaxolol B",retinal mRNA; gene Amyloid precursor-like protein 2 (X77934),1.1
same,"Relative Change versus non-cauterized eyes, cauterized + betaxolol B",retinal mRNA; gene Asparagine synthase (U07201),−1.1
same,"Relative Change versus non-cauterized eyes, cauterized + betaxolol B",retinal mRNA; gene B-2 arylamine N-acetyltransferase (U01347),1.5
same,"Relative Change versus non-cauterized eyes, cauterized + betaxolol B",retinal mRNA; gene Beta A3/A1 crystallin (X15143),−1.1
same,"Relative Change versus non-cauterized eyes, cauterized + betaxolol B",retinal mRNA; gene Clone RKIAS43 (AA892520),2.9
same,"Relative Change versus non-cauterized eyes, cauterized + betaxolol B",retinal mRNA; gene Crybb2 (X83671),−1.0
same,"Relative Change versus non-cauterized eyes, cauterized + betaxolol B",retinal mRNA; gene Cyclic nucleotide-gated cation channel (AJ000515),3.4
same,"Relative Change versus non-cauterized eyes, cauterized + betaxolol B",retinal mRNA; gene Gial fibrillary acidic protein (AF028784),1.4
same,"Relative Change versus non-cauterized eyes, cauterized + betaxolol B",retinal mRNA; gene Gzα (U77483),1.1
same,"Relative Change versus non-cauterized eyes, cauterized + betaxolol B",retinal mRNA; gene Helicase RAP 30 (L01267),1.2
same,"Relative Change versus non-cauterized eyes, cauterized + betaxolol B",retinal mRNA; gene PSD-95/SAP90-asociated protein-4 (U67140),−1.0
same,"Relative Change versus non-cauterized eyes, cauterized + betaxolol B",retinal mRNA; gene Protein phosphatase 1 gamma (S78217),2.5
same,"Relative Change versus non-cauterized eyes, cauterized + betaxolol B",retinal mRNA; gene RBCK (AB011369),1.3
same,"Relative Change versus non-cauterized eyes, cauterized + betaxolol B",retinal mRNA; gene Ras-related p23 (X12535),1.1
same,"Relative Change versus non-cauterized eyes, cauterized + betaxolol B",retinal mRNA; gene Reggie1-1 (AF023302),1.8
same,"Relative Change versus non-cauterized eyes, cauterized + betaxolol B",retinal mRNA; gene Ribosomal protein L23-related product (U62635),3.8
same,"Relative Change versus non-cauterized eyes, cauterized + betaxolol B",retinal mRNA; gene S-adenosylmethionine synthase (J05571),1.1
same,"Relative Change versus non-cauterized eyes, cauterized + betaxolol B",retinal mRNA; gene SPARC (U75928),1.9
same,"Relative Change versus non-cauterized eyes, cauterized + betaxolol B",retinal mRNA; gene cDNA clone rx00382 (AI639155),7.2
same,"Relative Change versus non-cauterized eyes, cauterized + betaxolol B",retinal mRNA; gene cDNA clone rx01295 (AI639375),4.8
same,"Relative Change versus non-cauterized eyes, cauterized + betaxolol B",retinal mRNA; gene cDNA clone rx05013 (AI639441),2.8
same,"Relative Change versus non-cauterized eyes, cauterized + betaxolol B",retinal mRNA; gene α2 macroglobulin (M23566),5.6
same,increase of retinal α2 macroglobulin mRNA at day 28 of high IOP,α2 macroglobulin mRNA,attenuated slightly
